Several values for one entry are separate records, joined by “and”; a condition that tells them apart may be missing. Equal entries are not always repeated.
Assays:
men = assay: Clinical study: fatigue test, 50 maximal unilateral isokinetic leg extensions, before and after 28 days of supplementation; assay type: in vivo; settings: for Peak Torque: mean of first three repetitions
Protocol: The supplements were designed to be as similar as possible in volume, color, and taste, and included 5.0 g of phosphocreatine disodium salts plus 200 mg of blueberry extract in the supplements for the Phosphocreatine/Blueberry Group, 3.0 g of creatine monohydrate for the Creatine Group, and microcrystalline cellulose for the placebo group. The bulk powder mixtures were sieved through a 60-mesh sieve to ensure inform particle size and to get rid of the agglomerates. They were then blended for one hour using an Erweka V-mixer (Model AR 403, Erweka America Inc., Edison, NJ) prior to packaging. Homogeneity of mixing was visually confirmed with the coloring agents used. Blended powders were accurately weighed (mass±1%) into individual foil lined pouches using a calibrated balance (Model SX 410, Denver Instruments, Bohemia, NY) and heat sealed. Five quality control samples were randomly selected from the packaged batch throughout the packaging process to ensure even distribution of contents, verified by mass for all samples and for creatine content in non-placebo samples by HPLC analysis.
The study was implemented as a double-blind, placebo-controlled, parallel design study. The study included a familiarization visit with each of the participants, a pre-supplementation test visit, 28 days of daily supplementation, and a post-supplementation test visit. During the testing visits, the subjects performed the fatigue test of Thorstensson and Karlsson which consisted of 50 maximal, unilateral, concentric, isokinetic leg extensions of the left leg at 180°·s^−1.
After completion of the pre-supplementation test visit, the participants were randomly assigned to one of the three groups described above. The subjects were provided with 28 days of individually packaged packets of powder of their assigned supplement and were instructed to mix the contents of the packet with 8 oz of water and drink it immediately after mixing. The subjects were instructed to maintain their usual exercise and dietary habits throughout the study. Each subject completed a 3-day dietary recall form and a 7-day exercise recall form prior to the pre-supplementation testing visit and prior to the post-supplementation testing visit to determine if there were changes in total caloric and macronutrient intake as well as exercise time during the supplementation period.
Before and after the 28 day supplementation regimens, peak torque, average power and percent decline for peak torque and average power were assessed from a fatigue test consisting of 50 maximal, unilateral, isokinetic leg extensions at 180°·s^−1.
During both pre-supplementation and post-supplementation test visits, peak torque and average power were assessed during the fatigue tests. Peak torque and average power were defined as the mean values from the first three repetitions of the fatigue test. Average power was operationally defined in the as the time averaged, integrated area under the isokinetic torque curve. To calculate the average power, the voltage-time relationships were converted to the isokinetic torque curve by converting the voltage to torque in N·m based on a regression equation. Integration of the area under the torque curve was accomplished using a custom LabVIEW program (National Instrument, Austin, TX, USA) and the average power was then calculated by dividing the integrated area under the torque curve by the time for each isokinetic repetition.

[1] = system: CaCo2 cell model for intestinal barrier; assay: Diffusion of extract polyphenols/flavonoids through confluent CaCo2 monolayer in side by side diffusion cells; assay type: in vitro ADME; settings: 10 mM alpha, beta or gamma cyclodextrin with blueberry polyphenol solution ~1 mg/ml
[2] = pre- to post-supplement, 28 days, monohydrate

| effect of cyclodextrin on permeation of blueberry phenolics thru the CaCo2 membrane [1] | Structure (SMILES) | Average Power (men; Post-Supplement (28 days)) | Peak Torque (men; Post-Supplement (28 days)) | Average Power (men; Pre-Supplement) | Peak Torque (men; Pre-Supplement) | Average Power Change (%) (men; [2]) | Peak Torque Change (%) (men; [2]) |
| --- | --- | --- | --- | --- | --- | --- | --- |
| – | CN(CC(=O)O)C(=N)N.O [Creatine Group, creatine monohydrate] | 159.78 ± 31.20 Watts | 111.97 ± 24.50 | 143.42 ± 33.84 Watts | 99.95 ± 22.50 | 10.22% and 10.22 ± 13.62% | 10.47% and 10.47 ± 11.03% |
| best effect on increasing the permeation | OC[C@H]1O[C@@H]2O[C@H]3[C@H](O)[C@@H](O)[C@@H](O[C@H]4[C@H](O)[C@@H](O)[C@@H](O[C@H]5[C@H](O)[C@@H](O)[C@@H](O[C@H]6[C@H](O)[C@@H](O)[C@@H](O[C@H]7[C@H](O)[C@@H](O)[C@@H](O[C@H]8[C@H](O)[C@@H](O)[C@@H](O[C@H]1[C@H](O)[C@H]2O)O[C@@H]8CO)O[C@@H]7CO)O[C@@H]6CO)O[C@@H]5CO)O[C@@H]4CO)O[C@@H]3CO [beta cyclodextrin] | – | – | – | – | – | – |

Reference: patent publication US12543767B2, “Oral supplements containing enriched phenolic compound extracts combined with organic acid sodium salts, creatines and/or creatine salts” (Phenolics, LLC, priority 2021, dated 2026)
